Measurements published in ChEMBL document CHEMBL5329200, “Structure-guided design and synthesis of ATP-competitive N-acyl-substituted sulfamide d-alanine-d-alanine ligase inhibitors” (Bioorg Med Chem, 2023).

Tests used:
Staphylococcus aureus = assay: Inhibition of C-terminal hexahistidine-tagged recombinant Staphylococcus aureus Ddl expressed in Escherichia coli BL21(DE3) assessed as remaining activity using D-Ala as substrate at 250 uM incubated for 5 mins in presence of ATP by antimony phosphomolybdate assay (reference value: 100+/-2%)
[1] = Inhibition of C-terminal hexahistidine-tagged recombinant Staphylococcus aureus Ddl expressed in Escherichia coli BL21(DE3) using D-Ala as substrate in presence of ATP by PK/LDH couples assay

SMILES | Activity (Staphylococcus aureus) [%] | IC50 [1] [mM]
Nc1ncnc2c1ncn2[C@@H]1O[C@H](CCNS(=O)(=O)NC(=O)OCCc2ccccc2)[C@@H](O)[C@H]1O | 80 | > 2.5
Nc1ncnc2c1ncn2[C@@H]1O[C@H](CCNS(N)(=O)=O)[C@@H](O)[C@H]1O | 72 | 1.6
N[C@@H]1CONC1=O [CYCLOSERINE] | 35 | 0.1
NCC[C@H]1O[C@@H](n2cnc3c(N)ncnc32)[C@H](O)[C@@H]1O | 63 | 2.2
Nc1ncnc2c1ncn2[C@@H]1O[C@H](CCNS(=O)(=O)NC(=O)OCCCC2CCCC2)[C@@H](O)[C@H]1O | 79 | > 2.5
COc1ccc(CCCCOC(=O)NS(=O)(=O)NCC[C@H]2O[C@@H](n3cnc4c(N)ncnc43)[C@H](O)[C@@H]2O)cc1 | 90 | 
COc1ccc(CCOC(=O)NS(=O)(=O)NCC[C@H]2O[C@@H](n3cnc4c(N)ncnc43)[C@H](O)[C@@H]2O)cc1 | 89 | 
CC(C)(C)OC(=O)NS(=O)(=O)NCC[C@H]1O[C@@H](n2cnc3c(N)ncnc32)[C@@H]2OC(C)(C)O[C@@H]21 | 91 | 
Nc1ncnc2c1ncn2[C@@H]1O[C@H](CCNS(=O)(=O)NC(=O)OCCc2ccccc2F)[C@@H](O)[C@H]1O | 84 | 
CC1(C)O[C@@H]2[C@H](O1)[C@@H](CCNS(=O)(=O)NC(=O)OCCc1ccc(Cl)c(Cl)c1)O[C@H]2n1cnc2c(N)ncnc21 | 89 | 
CC1(C)O[C@@H]2[C@H](O1)[C@@H](CCN)O[C@H]2n1cnc2c(N)ncnc21 | 82 | 
Nc1ncnc2c1ncn2[C@@H]1O[C@H](CCNS(=O)(=O)NC(=O)OCCN2OC[C@@H](N)C2=O)[C@@H](O)[C@H]1O | 70 | 1.7
Nc1ncnc2c1ncn2CCCCNS(=O)(=O)NC(=O)OCCc1ccc(Cl)c(Cl)c1 | 110 | 
CC1CN(C(=O)OC(C)(C)C)CCN1CCOC(=O)NS(=O)(=O)NCC[C@H]1O[C@@H](n2cnc3c(N)ncnc32)[C@H](O)[C@@H]1O (stereo partly drawn) | 95 | 
CC1CNCCN1CCOC(=O)NS(=O)(=O)NCC[C@H]1O[C@@H](n2cnc3c(N)ncnc32)[C@H](O)[C@@H]1O (stereo partly drawn) | 76 | > 2.5
Nc1ncnc2c1ncn2[C@@H]1O[C@H](CCNS(=O)(=O)NC(=O)OCCc2ccc(Cl)c(Cl)c2)[C@@H](O)[C@H]1O | 85 | 
CC(C)(C)OC(=O)N[C@@H]1CON(CCO)C1=O | 90 | 
Nc1ncnc2c1ncn2[C@@H]1O[C@H](CCNS(=O)(=O)NC(=O)OCCc2ccccc2Cl)[C@@H](O)[C@H]1O | 87 | 
Cc1ccc(CCCOC(=O)NS(=O)(=O)NCC[C@H]2O[C@@H](n3cnc4c(N)ncnc43)[C@H](O)[C@@H]2O)cc1 | 82 | 
Nc1ncnc2c1ncn2[C@@H]1O[C@H](CCNS(=O)(=O)NC(=O)OCCCc2ccc(Cl)cc2)[C@@H](O)[C@H]1O | 96 | 
Nc1ncnc2c1ncn2[C@@H]1O[C@H](CCNS(=O)(=O)NC(=O)OCCc2cccc(Cl)c2)[C@@H](O)[C@H]1O | 91 | 
